Assay results taken from patent US20170007562A1, “Use of Guanidinoacetic Acid and/or Creatine for Increasing the Hatch Rate” (EVONIK DEGUSSA GMBH, priority 2014, published 2017).

Tests used:
[1] = system: parent quails / quail eggs; assay: Effect of guanidinoacetic acid in parent feed on total fertility, hatching rate and embryo mortality of quail eggs; type: in vivo; details: for Total fertility: eggs of quails aged 29 weeks; for Hatching rate: hatched quails to incubated eggs
Procedure: 240 parent quails aged 25 weeks were randomly assigned to 5 different rations. Each ration had in each case 8 cages assigned to it, each of which contained a total of 6 birds (4 females, 2 males). Each of the cages was exposed to 17 hours light (natural and artificial), followed by 7 hours dark.
The basic feed employed was a mixture which consisted essentially of maize meal and extracted soybean meal (see table 1). Guanidinoacetic acid (GAA) was added to the basic feed in 4 different amounts (0.06; 0.12; 0.18; 0.24% by weight) giving in total 5 different feed mixtures—with the basic feed without guanidinoacetic acid as reference. The inert constituents of the basic feed were in each case partially substituted by the added guanidinoacetic acid. Guanidinoacetic acid was employed in the form of the commercial product CreAMINO® (96% GAA, Evonik Industries, Germany). During the experiment, the feed was administered ad lib in the form of a meal. Furthermore, the birds were also supplied with sufficient water.
When the quails had reached an age of 29 weeks, the eggs laid were collected on seven successive days and stored for six days in a room at a temperature of 20° C. Thereafter, in each case 196 eggs per ration were incubated in an automatic hatcher. After incubation for 15 days in the hatcher, the eggs were transferred into a hatching room with a temperature of 37° C. and relative atmospheric humidity of 65%. After two days in the hatching room, the hatching rate was determined as the ratio of hatched quails to the number of incubated eggs. Equally, the total fertility was determined as the ratio of fertilized eggs to the total number of incubated eggs. Furthermore, the hatching rate of fertilized eggs was determined as the ratio of hatched quails to the number of fertilized eggs. Furthermore, the embryo mortality, too, was determined. Finally, the guanidinoacetic acid, creatine and creatinine contents in the obtained eggs were determined.

[2] = system: hatched quail chicks; assay: Effect of GAA feeding of the parent animals on the properties of the hatched chicks; type: in vivo, quails; details: for Feed conversion / Weight gain / total feed intake, days 1–35: GAA-free ration, days 1 to 35; for Weight on day 1: chicks on GAA-free ration
Excerpt: Finally, the effect of GAA feeding of the parent animals on the properties of the hatched chicks was also studied. To this end, in each case 80 chicks which had been obtained subsequently to feeding the parent animals with the respective ratios were subjected to a two-step feeding programme. Here, the chicks were subjected to a GAA-free ration. Here, all chicks were given the same feed. The feeding stuff of the chicks for the first three weeks and for weeks four to five can be seen from Table 1. The data determined were chick weight on the day of hatching, chick performance (feed intake, weight increase and feed conversion) and creatine content in the muscle tissue of the freshly hatched chicks.

[3] = system: parent broilers (Cobb 500); assay: Effect of guanidinoacetic acid on egg production, fertility and hatching rate of hatchery eggs of parent broilers; type: in vivo; details: week 50 to 60
Excerpt: 120 parent broilers (Cobb 500) were randomly assigned to 5 different 10-week feeding measures from week 50 to week 60 of their lives. In each case 6 cages, each of which contained a total of 4 parent hens were subjected to each feeding measure. The basic feed employed was a mixture consisting essentially of maize meal and soybean meal (Table 5). […] In this context, in each case the inert constituents of the basic feed were substituted to some extent by the added guanidinoacetic acid. Guanidinoacetic acid was employed in the form of the commercial product CreAMINO® (96% GAA, Evonik Industries, Germany). The parent animals were given the feed meal as per instructions of the Cobb Breeder Management Guide. In week 60 of their lives, the hens were twice artificially inseminated, the second insemination taking place 4 days after the first one. The semen used for the insemination was obtained from cockerels which had not been fed GAA. The semen was obtained by using abdominal massage. The semen obtained was collected and the sperm cell concentration was determined in order to ensure that all hens were inseminated with the same number and the same volume of sperm cells. After carrying out the insemination, the laid eggs were collected on 10 successive days. The eggs obtained were finally incubated under identical conditions, and the egg production rate, fertility and hatching rate of the fertilized eggs were subsequently determined.

[4] = system: eggs; details: prior art, Halle et al, Landbauforschung Völkenrode (2006); cited from earlier work
[5] = 0.06% by weight GAA in parent feed
[6] = 0.06% by weight GAA in parent feed, quails
[7] = 0.12% by weight GAA in parent feed
[8] = 0.12% by weight GAA in parent feed, quails
[9] = 0.18% by weight GAA in parent feed
[10] = 0.18% by weight GAA in parent feed, quails
[11] = 0.24% by weight GAA in parent feed
[12] = 0.24% by weight GAA in parent feed, quails
[13] = square regression analysis, quails
[14] = chicks of parents fed 0.06% by weight GAA
[15] = chicks of parents fed 0.12% by weight GAA
[16] = chicks of parents fed 0.18% by weight GAA
[17] = chicks of parents fed 0.24% by weight GAA
[18] = 0.04% by weight guanidinoacetic acid in feed
[19] = 0.08% by weight guanidinoacetic acid in feed
[20] = 0.12% by weight guanidinoacetic acid in feed
[21] = 0.16% by weight guanidinoacetic acid in feed

Structure (SMILES): N=C(N)NCC(=O)O [GAA, Guanidinoacetic acid]
- Total fertility [1, 5]: 95.27 ± 1.81%
- Hatching rate [1, 5]: 76.52 ± 3.78%
- Hatching rate of the fertilized eggs [1, 6]: 80.19 ± 3.07%
- Mortality (embryo mortality) [1, 6]: 18.75 ± 2.76%
- Total fertility [1, 7]: 97.05 ± 1.51%
- Hatching rate [1, 7]: 90.69 ± 2.10%
- Hatching rate of the fertilized eggs [1, 8]: 93.49 ± 2.04%
- Mortality (embryo mortality) [1, 8]: 6.40 ± 1.96%
- Total fertility [1, 9]: 98.32 ± 0.82%
- Hatching rate [1, 9]: 87.39 ± 3.20%
- Hatching rate of the fertilized eggs [1, 10]: 88.94 ± 3.33%
- Mortality (embryo mortality) [1, 10]: 10.92 ± 3.32%
- Total fertility [1, 11]: 94.02 ± 1.29%
- Hatching rate [1, 11]: 81.38 ± 2.50%
- Hatching rate of the fertilized eggs [1, 12]: 86.51 ± 2.03%
- Mortality (embryo mortality) [1, 12]: 12.64 ± 1.89%
- dosage from which the observed effects were significantly increased ([1]; quails): above 0.1 % by weight
- optimum range of feeding the parent animals ([1]; quails): 0.12-0.18 % by weight
- optimum value for GAA supplementation in terms of the hatching rate [1, 13]: 0.15 % by weight
- optimum value for GAA supplementation in terms of the hatching rate of fertilized eggs [1, 13]: 0.16 % by weight
- optimum value for GAA supplementation in terms of the mortality rate [1, 13]: 0.16 % by weight
- optimum value for GAA supplementation in terms of the total reproduction [1, 13]: 0.14 % by weight
- Feed conversion [2, 14]: 3.248 ± 0.063 g/g
- Weight gain [2, 14]: 230.74 ± 7.6 g
- total feed intake, days 1–35 [2, 14]: 748 ± 11.1 g
- Weight on day 1 [2, 14]: 9.60 ± 0.16 g
- Feed conversion [2, 15]: 3.414 ± 0.048 g/g
- Weight gain [2, 15]: 224.98 ± 2.9 g
- total feed intake, days 1–35 [2, 15]: 768 ± 11.1 g
- Weight on day 1 [2, 15]: 9.74 ± 0.31 g
- Feed conversion [2, 16]: 3.305 ± 0.033 g/g
- Weight gain [2, 16]: 217.22 ± 0.6 g
- total feed intake, days 1–35 [2, 16]: 718 ± 8.95 g
- Weight on day 1 [2, 16]: 9.65 ± 0.16 g
- Feed conversion [2, 17]: 3.455 ± 0.090 g/g
- Weight gain [2, 17]: 222.86 ± 1.9 g
- total feed intake, days 1–35 [2, 17]: 770 ± 26.1 g
- Weight on day 1 [2, 17]: 9.41 ± 0.17 g
- Creatine in the muscle ([2]; freshly hatched chicks of parents fed 0.06% by weight GAA): 0.541 ± 0.026 mg/g
- Creatine in the muscle ([2]; freshly hatched chicks of parents fed 0.12% by weight GAA): 0.489 ± 0.058 mg/g
- Creatine in the muscle ([2]; freshly hatched chicks of parents fed 0.18% by weight GAA): 0.481 ± 0.040 mg/g
- Creatine in the muscle ([2]; freshly hatched chicks of parents fed 0.24% by weight GAA): 0.433 ± 0.033 mg/g
- Egg production [3, 18]: 50.42%
- Fertility [3, 18]: 85.15%
- Hatching rate (of fertilized eggs) [3, 18]: 65.59%
- Egg production [3, 19]: 53.18%
- Fertility [3, 19]: 96.51%
- Hatching rate (of fertilized eggs) [3, 19]: 83.76%
- Egg production [3, 20]: 53.44%
- Fertility [3, 20]: 96.43%
- Hatching rate (of fertilized eggs) [3, 20]: 83.95%
- Egg production [3, 21]: 50.50%
- Fertility [3, 21]: 81.76%
- Hatching rate (of fertilized eggs) [3, 21]: 65.04%

Structure (SMILES): CN(CC(=O)O)C(=N)N [creatine]
- effect on the hatching rate [4]: no effect
